# According to PMC10453766, “Comparison of the Effects of DOTA and NOTA Chelators on ^64Cu-Cudotadipep and ^64Cu-Cunotadipep for Prostate Cancer” (Diagnostics, 2023):
# Tests used:
# [1] = Serum stability in mouse serum (radio-TLC); type: in vitro ADME; conditions: 37 °C, 2, 24 and 48 h
# Experimental: (§1) The serum stabilities of ^64Cu-cudotadipep and ^64Cu-cunotadipep were evaluated in human and mouse sera for 48 h. Briefly, 10 µL ^64Cu-cudotadipep (3.7 MBq) or […] (3.7 MBq) was mixed with 90 µL human or mouse serum and then incubated at 37 °C for 48 h. At each time point (2, 24, and 48 h), a 10 µL sample was removed, mixed with 100 µL distilled water, filtered through a 0.22 µm membrane filter, and then analyzed using radio-thin layer chromatography (TLC eluent condition: 1 M NH4OAc:MeOH = 1:1). The radio-TLCs were performed using a radio-TLC imaging scanner (BioScan, Washington, DC, USA) for radiodetection.
# [2] = Radiation-absorbed dose calculation (OLINDA/EXM) from normal mouse biodistribution; parameters: species or system human
# Experimental: The biodistribution results of normal BALB/c mice were used to evaluate the human radiation-absorbed dose. The internal absorbed doses of ^64Cu-cudotadipep and ^64Cu-cunotadipep were evaluated using the residence time and total amount of radioactivity in the target organ of the mice. The internal absorbed dose of the mice was converted to the human dose based on the Medical Internal Radiation Dose schema, using OLINDA/EXM version 1.1 software.
# PC3-PIP (PSMA+) cells = assay: Cell uptake in PC3-PIP cells; type: cell-based, human; conditions: PC3-PIP cells, 1 × 10^6 cells, 3.7 MBq, 2 h, 37 °C
# Experimental: (§2) PC3-PIP or PC3-flu cells (1 × 10^6) were mixed with 3.7 MBq (100 μCi) of ^64Cu-cudotadipep or ^64Cu-cunotadipep and incubated at 37 °C and 5% CO2 for 2 h. Following incubation, the cells were washed with PBS twice and collected via centrifugation (2000 rpm, 5 min). Radioactivity was measured using 2480 WIZARD2 gamma counter (Perkin Elmer, Waltham, MA, USA). Percent (%) uptake was calculated using the ratio between the radioactivity of the cells and treated radioactivity.
# PC3-PIP tumor xenograft = assay: Biodistribution in PC3-PIP tumor-bearing nude mice; type: in vivo, mouse; conditions: tail vein
# Experimental: All animal experiments followed the procedures approved by the Institutional Animal Care and Use Committee of Korea Institute of Radiological & Medical Sciences (approval No. KIRAMS2021-0044). Male BALB/c mice and athymic nude (Nu/Nu) BALB/c mice (weighing 20–25 g, 8 weeks old) were purchased from Nara Biotech (Seoul, Republic of Korea). PC3-PIP cells (1 × 10^7) were dispensed in 100 μL PBS, mixed with Matrigel, and subcutaneously implanted in the right thigh of male athymic nude (Nu/Nu) BALB/c mice. When the tumor reached 0.5–0.9 cm in diameter (2–3 weeks following implantation), biodistribution studies and PET imaging were performed.
# (§3) Approximately 0.93 MBq ^64Cu-cudotadipep or ^64Cu-cunotadipep was injected via the tail vein into normal BALB/c mice or PC3-PIP tumor-bearing nude mice (n = 5/group). Normal and tumor-bearing mice were euthanized at 2, 6, 24, and 48 h following injection. Tumor and normal tissues were excised and weighed, and their radioactivity was measured using a gamma counter (2480 WIZARD2 gamma counter, Perkin Elmer, Waltham, MA, USA). The radioactivity measured in each tissue was expressed as a percentage of the injected dose per gram of tissue (%ID/g).
# PC3-flu (PSMA−) cells = assay: Cell uptake in PC3-flu cells; type: cell-based, human; conditions: 1 × 10^6 cells, 3.7 MBq, 2 h, 37 °C
# Experimental: as §2
# [3] = Biodistribution in normal BALB/c mice; type: in vivo, mouse; conditions: tail vein
# Experimental: as §3
# [4] = Serum stability in human serum (radio-TLC); type: in vitro ADME; conditions: 37 °C, 2, 24 and 48 h
# Experimental: as §1
structure (smiles),measurement,setting,value
O=C([O-])CN1CCN(CC(=O)[O-])CCN(CC(=O)N[C@@H](CCCCNC(=O)CCCc2ccc(I)cc2)C(=O)NCCOCCOCC(=O)N(CCCC[C@H](NC(=O)N[C@@H](CCC(=O)O)C(=O)O)C(=O)O)CC(=O)O)CC1.[64Cu+2] [^64Cu-cunotadipep],serum stability,[1],> 98%
same,effective dose,"[2]; ICRP tissue-weighting factors, OLINDA/EXM, extrapolated from mouse biodistribution",3.00 × 10^−2 mSv/MBq
same,"estimated radiation-absorbed dose, kidneys","[2]; adult males, extrapolated from normal BALB/c mouse biodistribution",2.02 mGy/MBq
same,cellular uptake,PC3-PIP (PSMA+) cells,6.02 ± 0.05%
same,"Biodistribution, Blood",PC3-PIP tumor xenograft; 2 h,9.81 ± 3.47 %ID/g
same,"Biodistribution, Bone",PC3-PIP tumor xenograft; 2 h,5.71 ± 1.47 %ID/g
same,"Biodistribution, Fat",PC3-PIP tumor xenograft; 2 h,5.72 ± 5.53 %ID/g
same,"Biodistribution, Heart",PC3-PIP tumor xenograft; 2 h,4.56 ± 1.25 %ID/g
same,"Biodistribution, Intestine",PC3-PIP tumor xenograft; 2 h,2.97 ± 1.15 %ID/g
same,"Biodistribution, Kidney",PC3-PIP tumor xenograft; 2 h,65.02 ± 22.42 %ID/g
same,"Biodistribution, Liver",PC3-PIP tumor xenograft; 2 h,8.33 ± 2.29 %ID/g
same,"Biodistribution, Lung",PC3-PIP tumor xenograft; 2 h,7.72 ± 2.30 %ID/g
same,"Biodistribution, Muscle",PC3-PIP tumor xenograft; 2 h,2.14 ± 0.59 %ID/g
same,"Biodistribution, Spleen",PC3-PIP tumor xenograft; 2 h,8.58 ± 3.99 %ID/g
same,"Biodistribution, Stomach",PC3-PIP tumor xenograft; 2 h,2.50 ± 1.05 %ID/g
same,"Biodistribution, Tumor",PC3-PIP tumor xenograft; 2 h,22.61 ± 14.10 %ID/g
same,"Biodistribution, Blood",PC3-PIP tumor xenograft; 6 h,4.01 ± 0.94 %ID/g
same,"Biodistribution, Bone",PC3-PIP tumor xenograft; 6 h,1.81 ± 1.50 %ID/g
same,"Biodistribution, Fat",PC3-PIP tumor xenograft; 6 h,4.14 ± 1.33 %ID/g
same,"Biodistribution, Heart",PC3-PIP tumor xenograft; 6 h,2.59 ± 0.38 %ID/g
same,"Biodistribution, Intestine",PC3-PIP tumor xenograft; 6 h,2.74 ± 0.80 %ID/g
same,"Biodistribution, Kidney",PC3-PIP tumor xenograft; 6 h,91.48 ± 12.98 %ID/g
same,"Biodistribution, Liver",PC3-PIP tumor xenograft; 6 h,6.96 ± 1.00 %ID/g
same,"Biodistribution, Lung",PC3-PIP tumor xenograft; 6 h,5.75 ± 2.72 %ID/g
same,"Biodistribution, Muscle",PC3-PIP tumor xenograft; 6 h,1.44 ± 0.56 %ID/g
same,"Biodistribution, Spleen",PC3-PIP tumor xenograft; 6 h,6.63 ± 0.12 %ID/g
same,"Biodistribution, Stomach",PC3-PIP tumor xenograft; 6 h,1.42 ± 0.53 %ID/g
same,"Biodistribution, Tumor",PC3-PIP tumor xenograft; 6 h,35.14 ± 9.68 %ID/g
same,"Biodistribution, Blood",PC3-PIP tumor xenograft; 24 h,1.23 ± 0.38 %ID/g
same,"Biodistribution, Bone",PC3-PIP tumor xenograft; 24 h,2.81 ± 1.71 %ID/g
same,"Biodistribution, Fat",PC3-PIP tumor xenograft; 24 h,0.74 ± 0.20 %ID/g
same,"Biodistribution, Heart",PC3-PIP tumor xenograft; 24 h,1.64 ± 0.12 %ID/g
same,"Biodistribution, Intestine",PC3-PIP tumor xenograft; 24 h,2.38 ± 0.42 %ID/g
same,"Biodistribution, Kidney",PC3-PIP tumor xenograft; 24 h,50.29 ± 7.06 %ID/g
same,"Biodistribution, Liver",PC3-PIP tumor xenograft; 24 h,6.99 ± 0.45 %ID/g
same,"Biodistribution, Lung",PC3-PIP tumor xenograft; 24 h,4.58 ± 1.08 %ID/g
same,"Biodistribution, Muscle",PC3-PIP tumor xenograft; 24 h,0.41 ± 0.06 %ID/g
same,"Biodistribution, Spleen",PC3-PIP tumor xenograft; 24 h,2.79 ± 0.87 %ID/g
same,"Biodistribution, Stomach",PC3-PIP tumor xenograft; 24 h,1.27 ± 0.08 %ID/g
same,"Biodistribution, Tumor",PC3-PIP tumor xenograft; 24 h,37.13 ± 3.65 %ID/g
same,"Biodistribution, Blood",PC3-PIP tumor xenograft; 48 h,1.08 ± 0.27 %ID/g
same,"Biodistribution, Bone",PC3-PIP tumor xenograft; 48 h,3.42 ± 0.40 %ID/g
same,"Biodistribution, Fat",PC3-PIP tumor xenograft; 48 h,2.36 ± 1.25 %ID/g
same,"Biodistribution, Heart",PC3-PIP tumor xenograft; 48 h,1.91 ± 0.57 %ID/g
same,"Biodistribution, Intestine",PC3-PIP tumor xenograft; 48 h,1.54 ± 0.16 %ID/g
same,"Biodistribution, Kidney",PC3-PIP tumor xenograft; 48 h,52.07 ± 18.32 %ID/g
same,"Biodistribution, Liver",PC3-PIP tumor xenograft; 48 h,5.74 ± 1.83 %ID/g
same,"Biodistribution, Lung",PC3-PIP tumor xenograft; 48 h,3.64 ± 1.14 %ID/g
same,"Biodistribution, Muscle",PC3-PIP tumor xenograft; 48 h,0.80 ± 0.22 %ID/g
same,"Biodistribution, Spleen",PC3-PIP tumor xenograft; 48 h,3.56 ± 1.14 %ID/g
same,"Biodistribution, Stomach",PC3-PIP tumor xenograft; 48 h,1.14 ± 0.31 %ID/g
same,"Biodistribution, Tumor",PC3-PIP tumor xenograft; 48 h,28.84 ± 13.04 %ID/g
same,cellular uptake,PC3-flu (PSMA−) cells,1.52 ± 0.03%
same,"Biodistribution, Blood",[3]; 2 h,9.51 ± 7.25 %ID/g
same,"Biodistribution, Bone",[3]; 2 h,1.07 ± 0.24 %ID/g
same,"Biodistribution, Brain",[3]; 2 h,0.26 ± 0.12 %ID/g
same,"Biodistribution, Fat",[3]; 2 h,1.20 ± 0.35 %ID/g
same,"Biodistribution, Heart",[3]; 2 h,3.17 ± 1.12 %ID/g
same,"Biodistribution, Intestine",[3]; 2 h,2.21 ± 0.35 %ID/g
same,"Biodistribution, Kidney",[3]; 2 h,53.28 ± 19.92 %ID/g
same,"Biodistribution, Liver",[3]; 2 h,4.38 ± 1.51 %ID/g
same,"Biodistribution, Lung",[3]; 2 h,5.48 ± 2.24 %ID/g
same,"Biodistribution, Muscle",[3]; 2 h,1.30 ± 0.42 %ID/g
same,"Biodistribution, Spleen",[3]; 2 h,5.07 ± 1.38 %ID/g
same,"Biodistribution, Stomach",[3]; 2 h,1.21 ± 0.49 %ID/g
same,"Biodistribution, Blood",[3]; 6 h,5.62 ± 0.95 %ID/g
same,"Biodistribution, Bone",[3]; 6 h,0.89 ± 0.22 %ID/g
same,"Biodistribution, Brain",[3]; 6 h,0.19 ± 0.02 %ID/g
same,"Biodistribution, Fat",[3]; 6 h,0.99 ± 0.27 %ID/g
same,"Biodistribution, Heart",[3]; 6 h,2.25 ± 0.33 %ID/g
same,"Biodistribution, Intestine",[3]; 6 h,1.69 ± 0.55 %ID/g
same,"Biodistribution, Kidney",[3]; 6 h,58.85 ± 6.00 %ID/g
same,"Biodistribution, Liver",[3]; 6 h,4.11 ± 0.53 %ID/g
same,"Biodistribution, Lung",[3]; 6 h,4.76 ± 0.51 %ID/g
same,"Biodistribution, Muscle",[3]; 6 h,1.05 ± 0.14 %ID/g
same,"Biodistribution, Spleen",[3]; 6 h,5.05 ± 1.56 %ID/g
same,"Biodistribution, Stomach",[3]; 6 h,0.92 ± 0.45 %ID/g
same,"Biodistribution, Blood",[3]; 24 h,1.39 ± 0.15 %ID/g
same,"Biodistribution, Bone",[3]; 24 h,0.60 ± 0.03 %ID/g
same,"Biodistribution, Brain",[3]; 24 h,0.13 ± 0.01 %ID/g
same,"Biodistribution, Fat",[3]; 24 h,0.63 ± 0.26 %ID/g
same,"Biodistribution, Heart",[3]; 24 h,1.22 ± 0.06 %ID/g
same,"Biodistribution, Intestine",[3]; 24 h,1.16 ± 0.24 %ID/g
same,"Biodistribution, Kidney",[3]; 24 h,37.40 ± 1.84 %ID/g
same,"Biodistribution, Liver",[3]; 24 h,5.32 ± 0.12 %ID/g
same,"Biodistribution, Lung",[3]; 24 h,2.53 ± 0.20 %ID/g
same,"Biodistribution, Muscle",[3]; 24 h,0.42 ± 0.05 %ID/g
same,"Biodistribution, Spleen",[3]; 24 h,2.56 ± 0.33 %ID/g
same,"Biodistribution, Stomach",[3]; 24 h,0.67 ± 0.22 %ID/g
same,"Biodistribution, Blood",[3]; 48 h,0.45 ± 0.15 %ID/g
same,"Biodistribution, Bone",[3]; 48 h,0.83 ± 0.10 %ID/g
same,"Biodistribution, Brain",[3]; 48 h,0.18 ± 0.01 %ID/g
same,"Biodistribution, Fat",[3]; 48 h,0.40 ± 0.10 %ID/g
same,"Biodistribution, Heart",[3]; 48 h,0.95 ± 0.07 %ID/g
same,"Biodistribution, Intestine",[3]; 48 h,0.56 ± 0.08 %ID/g
same,"Biodistribution, Kidney",[3]; 48 h,9.55 ± 2.33 %ID/g
same,"Biodistribution, Liver",[3]; 48 h,3.86 ± 0.31 %ID/g
same,"Biodistribution, Lung",[3]; 48 h,1.32 ± 0.13 %ID/g
same,"Biodistribution, Muscle",[3]; 48 h,0.45 ± 0.04 %ID/g
same,"Biodistribution, Spleen",[3]; 48 h,1.19 ± 0.11 %ID/g
same,"Biodistribution, Stomach",[3]; 48 h,0.44 ± 0.11 %ID/g
same,serum stability,[4],> 98%
